Source: US20100010219A1, “METHOD FOR PRODUCING PYRROLIDINE COMPOUND” (JAPAN TOBACCO INC., priority 2006, published 2010)
Counter-ions that a name gives are not always drawn.

These molecules were tested against T1, human HSD-1 (recombinant HSD-1) (Homo sapiens, UniProt P28845) (assay: HSD-1 activity inhibitory action in vitro (SPA, conversion of cortisone to cortisol)). Details: recombinant human HSD-1 expressed using baculovirus system; 10 nM 3H cortisone, 500 μM NADPH; room temperature 90 to 120 min; read-out: hHSD1 (IC50 (nM)).
T1 construct: made in house
T1 sequence (P28845 whole entry): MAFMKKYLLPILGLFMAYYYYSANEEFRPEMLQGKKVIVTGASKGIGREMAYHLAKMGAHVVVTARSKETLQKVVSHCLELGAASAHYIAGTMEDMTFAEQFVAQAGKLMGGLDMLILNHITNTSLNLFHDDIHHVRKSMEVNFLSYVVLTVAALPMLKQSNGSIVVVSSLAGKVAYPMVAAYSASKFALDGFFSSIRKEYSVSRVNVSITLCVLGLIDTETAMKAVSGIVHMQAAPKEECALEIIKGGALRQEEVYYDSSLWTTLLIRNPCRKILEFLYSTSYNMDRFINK
Type: biochemical

IC50, < 30 nM:
O=C(Nc1ccc(C(F)(F)F)cc1)N1CCC(n2ncc(C(=O)N3CCC(c4ccccc4C(F)(F)F)C3)c2C2CC2)CC1 (centres unmarked) [Example 141, 1-{5-cyclopropyl-1-[1-(4-trifluoromethylphenylcarbamoyl)piperidin-4-yl]-1H-pyrazole-4-carbonyl}-3-(2-trifluoromethylphenyl)pyrrolidine]
NC(=O)CCN1CCC(n2ncc(C(=O)N3CC[C@@H](c4ccccc4C(F)(F)F)C3)c2C2CC2)CC1 [Example 97, 1-{1-[1-(2-carbamoylethyl)piperidin-4-yl]-5-cyclopropyl-1H-pyrazole-4-carbonyl}-[(S)-3-(2-trifluoromethylphenyl)]pyrrolidine hydrochloride]
CC(=O)NC1CCN(C(=O)N2CCC(n3ncc(C(=O)N4CC[C@@H](c5ccccc5C(F)(F)F)C4)c3C3CC3)CC2)C1 (stereo partly drawn) [Example 40, 1-{1-[1-(3-acetylaminopyrrolidine-1-carbonyl)piperidin-4-yl]-5-cyclopropyl-1H-pyrazole-4-carbonyl}-[(S)-3-(2-trifluoromethylphenyl)]pyrrolidine]
O=C(c1cnn(C2CCN(C(=O)N3CC[C@H](O)C3)CC2)c1C1CC1)N1CC[C@@H](c2ccccc2C(F)(F)F)C1 [Example 22, 1-(5-cyclopropyl-1-{1-[(S)-3-hydroxypyrrolidine-1-carbonyl]piperidin-4-yl}-1H-pyrazole-4-carbonyl)-[(S)-3-(2-trifluoromethylphenyl)]pyrrolidine]
CC(=O)NCC(=O)N1CCC(n2ncc(C(=O)N3CC[C@@H](c4ccccc4C(F)(F)F)C3)c2C2CC2)CC1 [Example 68, 1-{1-[1-(2-acetylaminoacetyl)piperidin-4-yl]-5-cyclopropyl-1H-pyrazole-4-carbonyl}-[(S)-3-(2-trifluoromethylphenyl)]pyrrolidine]
NC1CCN(C(=O)N2CCC(n3ncc(C(=O)N4CC[C@@H](c5ccccc5C(F)(F)F)C4)c3C3CC3)CC2)CC1 [Example 35, 1-{1-[1-(4-aminopiperidine-1-carbonyl)piperidin-4-yl]-5-cyclopropyl-1H-pyrazole-4-carbonyl}-[(S)-3-(2-trifluoromethylphenyl)]pyrrolidine hydrochloride]
COc1ccnc(N2CCC(n3ncc(C(=O)N4CCC(CO)(c5ccccc5)C4)c3C3(C)CC3)CC2)n1 (centres unmarked) [Example 185, 3-hydroxymethyl-1-{1-[1-(4-methoxypyrimidin-2-yl)piperidin-4-yl]-5-(1-methylcyclopropyl)-1H-pyrazole-4-carbonyl}-3-phenylpyrrolidine hydrochloride]
O=C(c1cnn([C@H]2CC[C@H](c3nnn[nH]3)CC2)c1C1CC1)N1CC[C@@H](c2ccccc2C(F)(F)F)C1 [Example 132, 1-{5-cyclopropyl-1-[trans-4-(1H-tetrazol-5-yl)cyclohexyl]-1H-pyrazole-4-carbonyl}-[(S)-3-(2-trifluoromethylphenyl)]pyrrolidine]
O=C(c1cnn(C2CCN(C(=O)N3CCC3)CC2)c1C1CC1)N1CC[C@@H](c2ccccc2C(F)(F)F)C1 [Example 15, 1-{1-[1-(azetidine-1-carbonyl)piperidin-4-yl]-5-cyclopropyl-1H-pyrazole-4-carbonyl}-[(S)-3-(2-trifluoromethylphenyl)]pyrrolidine]
CC(=O)N1CCC[C@H]1C(=O)N1CCC(n2ncc(C(=O)N3CC[C@@H](c4ccccc4C(F)(F)F)C3)c2C2CC2)CC1 [Example 89, 1-(1-{1-[(S)-1-acetylpyrrolidine-2-carbonyl]piperidin-4-yl}-5-cyclopropyl-1H-pyrazole-4-carbonyl)-[(S)-3-(2-trifluoromethylphenyl)]pyrrolidine]
CN(C)CCNC(=O)N1CCC(n2ncc(C(=O)N3CC[C@@H](c4ccccc4C(F)(F)F)C3)c2C2CC2)CC1 [Example 13, 1-{5-cyclopropyl-1-[1-(2-dimethylaminoethylcarbamoyl)piperidin-4-yl]-1H-pyrazole-4-carbonyl}-[(S)-3-(2-trifluoromethylphenyl)]pyrrolidine hydrochloride]
O=C(NC1(CO)CC1)N1CCC(n2ncc(C(=O)N3CC[C@@H](c4ccccc4C(F)(F)F)C3)c2C2CC2)CC1 [Example 7, 1-{5-cyclopropyl-1-[1-(1-hydroxymethylcyclopropylcarbamoyl)piperidin-4-yl]-1H-pyrazole-4-carbonyl}-[(S)-3-(2-trifluoromethylphenyl)]pyrrolidine]
O=C(Nc1ccccc1F)N1CCC(n2ncc(C(=O)N3CCC(c4cccnc4)C3)c2C2CCCCC2)CC1 (centres unmarked) [Example 139, 1-{5-cyclohexyl-1-[1-(2-fluorophenylcarbamoyl)piperidin-4-yl]-1H-pyrazole-4-carbonyl}-3-(pyridin-3-yl)pyrrolidine]
O=C(Nc1ccccc1F)N1CCC(n2ncc(C(=O)N3CCC(c4cccnc4Cl)C3)c2C2CC2)CC1 (centres unmarked) [Example 137, 3-(2-chloropyridin-3-yl)-1-{5-cyclopropyl-1-[1-(2-fluorophenylcarbamoyl)piperidin-4-yl]-1H-pyrazole-4-carbonyl}pyrrolidine]
O=C(N[C@H](CO)c1ccccc1)N1CCC(n2ncc(C(=O)N3CC[C@@H](c4ccccc4C(F)(F)F)C3)c2C2CC2)CC1 [Example 51, 1-(5-cyclopropyl-1-{1-[(S)-2-hydroxy-1-phenylethylcarbamoyl]piperidin-4-yl}-1H-pyrazole-4-carbonyl)-[(S)-3-(2-trifluoromethylphenyl)]pyrrolidine]
CC(=O)Nc1ccc(N2CCC(n3ncc(C(=O)N4CCC(c5ccccc5C(F)(F)F)C4)c3C3CC3)CC2)cc1 (centres unmarked) [Example 182, 1-{1-[1-(4-acetylaminophenyl)piperidin-4-yl]-5-cyclopropyl-1H-pyrazole-4-carbonyl}-3-(2-trifluoromethylphenyl)pyrrolidine]
CC(=O)N[C@@H](C)C(=O)N1CCC(n2ncc(C(=O)N3CC[C@@H](c4ccccc4C(F)(F)F)C3)c2C2CC2)CC1 [Example 71, 1-(1-{1-[(S)-2-acetylaminopropionyl]piperidin-4-yl}-5-cyclopropyl-1H-pyrazole-4-carbonyl)-[(S)-3-(2-trifluoromethylphenyl)]pyrrolidine]
O=C(Nc1ccccc1F)N1CCC(n2ncc(C(=O)N3CC[C@@H](c4ccccc4C(F)(F)F)C3)c2C2CC2)CC1 [Example 124, 1-{5-cyclopropyl-1-[1-(2-fluorophenylcarbamoyl)piperidin-4-yl]-1H-pyrazole-4-carbonyl}-[(S)-3-(2-trifluoromethylphenyl)]pyrrolidine]
O=C(O)c1cccc(N2CCC(n3ncc(C(=O)N4CCC(c5ccccc5C(F)(F)F)C4)c3C3CC3)CC2)c1 (centres unmarked) [Example 114, 3-(4-{5-cyclopropyl-4-[3-(2-trifluoromethylphenyl)pyrrolidine-1-carbonyl]pyrazol-1-yl}piperidin-1-yl)benzoic acid]
O=C(c1cnn(C2CCN(c3n[nH]c(C4CC4)n3)CC2)c1C1CC1)N1CC[C@@H](c2ccccc2C(F)(F)F)C1 [Example 118, 1-{5-cyclopropyl-1-[1-(5-cyclopropyl-4H-[1,2,4]triazol-3-yl)piperidin-4-yl]-1H-pyrazole-4-carbonyl}-[(S)-3-(2-trifluoromethylphenyl)]pyrrolidine hydrochloride]
CC1(c2c(C(=O)N3CCC(c4ccccc4C(F)(F)F)C3)cnn2[C@H]2CC[C@H](C(=O)Nc3ccccc3F)CC2)CC1 (stereo partly drawn) [Example 190, 1-{5-(1-methylcyclopropyl)-1-[trans-4-(2-fluorophenylcarbamoyl)cyclohexyl]-1H-pyrazole-4-carbonyl}-3-(2-trifluoromethylphenyl)pyrrolidine]
CONC(=O)Nc1ccc(N2CCC(n3ncc(C(=O)N4CCC(c5ccccc5C(F)(F)F)C4)c3C3CC3)CC2)cc1 (centres unmarked) [Example 170, 1-(5-cyclopropyl-1-{1-[4-(3-methoxyureido)phenyl]piperidin-4-yl}-1H-pyrazole-4-carbonyl)-3-(2-trifluoromethylphenyl)pyrrolidine]
CC(C)NC(=O)N1CCC(n2ncc(C(=O)N3CC[C@@H](c4ccccc4C(F)(F)F)C3)c2C2CC2)CC1 [Example 125, 1-{5-cyclopropyl-1-[1-(1-isopropylcarbamoyl)piperidin-4-yl]-1H-pyrazole-4-carbonyl}-[(S)-3-(2-trifluoromethylphenyl)]pyrrolidine]
O=C(c1cnn(C2CCN(C(=O)N3CC[C@@H](O)C3)CC2)c1C1CC1)N1CC[C@@H](c2ccccc2C(F)(F)F)C1 [Example 21, 1-(5-cyclopropyl-1-{1-[(R)-3-hydroxypyrrolidine-1-carbonyl]piperidin-4-yl}-1H-pyrazole-4-carbonyl)-[(S)-3-(2-trifluoromethylphenyl)]pyrrolidine]
CC1(c2c(C(=O)N3CCC(c4ccccc4)(C(F)(F)F)C3)cnn2C2CCN(C(=O)Nc3ccccc3F)CC2)CC1 (centres unmarked) [Example 135, 1-{1-[1-(2-fluorophenylcarbamoyl)piperidin-4-yl]-5-(1-methylcyclopropyl)-1H-pyrazole-4-carbonyl}-3-phenyl-3-trifluoromethylpyrrolidine]
CC(=O)OCCC1(c2ccc(F)cc2)CCN(C(=O)c2cnn(C3CCN(c4ncccn4)CC3)c2C2(C)CC2)C1 (centres unmarked) [Example 176, 3-(2-acetoxyethyl)-3-(4-fluorophenyl)-1-{5-(1-methylcyclopropyl)-1-[1-(pyrimidin-2-yl)piperidin-4-yl]-1H-pyrazole-4-carbonyl}pyrrolidine hydrochloride]
